Results: US20100267753A1, “METHODS OF TREATING DISORDERS ASSOCIATED WITH PROTEIN KINASE CK2 ACTIVITY” (priority 2009, published 2010)

What was measured:
[1] = Pharmacokinetics in mouse (IV bolus or oral dose); format: in vivo; conditions: Mouse; for Cmax: read-out: Cmax
Description: (§1) The pharmacokinetics properties of drugs were investigated in three species, following an intravenous (IV) bolus or oral (PO) dose of Compound K at the dosages indicated in the chart. Blood samples were collected at predetermined times and the plasma separated. Plasma was separated from the blood samples collected at 5, 15 and 30 minutes and 1, 2, 4, 8 and 24 hours post-dose.
Drug levels were quantified by the LC/MS/MS method described below. Noncompartmental pharmacokinetic analysis was applied for intravenous administration. […] The terminal t1/2 and C0 were calculated using the last three and the first three data points, respectively
(§2) Bioanalysis was performed using a Quattro Micro LC/MS/MS instrument in the MRM detection mode, with an internal standard (1S). Briefly, 15 μL plasma samples were prepared for analysis using protein precipitation with 120 μL of acetonitrile. The supernatants were transferred into a 96 well plate and subjected to LC-MS/MS analysis using a Phenomenex Polar-RP HPLC column. The mobile phases were 10 mM NH4HCO3 in water (Solution-A) and 10 mM NH4HCO3 in methanol (Solution-B). The column was initially equilibrated with 25% Solution-B and followed with 100% Solution B over 5 minutes. […] Quantitation of the analytes was performed in the batch mode with two bracketing calibration curves according to the bioanalytical sample list.

[2] = Pharmacokinetics in dog (IV bolus or oral dose); format: in vivo; conditions: for AUC(0-inf) / Cmax / half-life / Vd: plasma; for half-life: read-out: Terminal T1/2 (converted); for Vd: read-out: Vdss
Description: as §1
Drug levels were quantified by the LC/MS/MS method described below. Noncompartmental pharmacokinetic analysis was applied for intravenous administration. A linear trapezoidal rule was used to compute AUC(0-24). The terminal t1/2 and C0 were calculated using the last three and the first three data points, respectively
as §2

[3] = Pharmacokinetic summary across mouse, rat and dog; format: in vivo
Description: Particularly for chronic conditions, oral administration is preferred. Typical dosages for oral administration would be approximately 5-500 mg/kg per day.
For some embodiments, delivery of compound K by injection, such as intramuscular or intravenous, may be preferred. […] The dosage for injected delivery (IV) can be about half of the oral dosage since injection bypasses the absorption barriers that reduce oral bioavailability. For delivery by injection, lower doses such as 1-25 mg/kg per day may be used to achieve similar plasma levels of drug.

[4] = system: CFA-induced thermal hyperalgesia; test: CFA-induced thermal hyperalgesia model (Hargreaves); format: in vivo, ICR mice; conditions: 25, 75 or 150 mg/kg BID for four days, dosed as suspensions
Description: The observations of pain responses were done blindly.
[…] On day 4, test subjects received a single injection of CFA (20 microliters) subcutaneously in the plantar surface of the left rear paw. CFA was injected subcutaneously into the plantar surface of the left hind paw of each test subject, under isoflurane anesthesia. […] On day 5, thermal responses were measured prior to treatment with the compound and again 1, 2, and 4 hours after treatment with […]. Withdrawal latencies were measured in response to thermal stimulus by the Hargreaves method. Naproxen was used as a positive control.

[5] = Phase I clinical study, safety and pharmacokinetics; format: in vivo, human
Description: Oral doses are administered twice daily for twenty-one consecutive days of a four week cycle. […] Response by RECIST is determined after every 2 cycles. Serial blood and plasma samples are collected on the first and final dosing days of Cycle 1 (i.e., Day 1 and Day 21) for pharmacokinetic analysis and for pharmacodynamic biomarker evaluations (specifically, total and phosphorylated forms of p21 and Akt).
Patients in Cohorts 1-3 were dosed twice daily (BID) with oral capsules.

[6] = system: HIV-1; test: U1 latent infection assay, antiviral (reverse transcriptase); format: cell-based; conditions: U1 latent infection assay
Description: Histocytic leukemia cell line U937, latently infected with HIV-1, are treated with TNFα to induce virus expression in the presence of test compound. Antiviral activity is determined as a reduction in reverse transcriptase after 72 hr incubation.
TI=TC/IC; also referred to as Therapeutic Index values (TI) or Antiviral Index (AI)
The histocytic leukemia cell line U937, latently infected with HIV-1, was treated with TNFα to induce virus expression in the presence of test compound. Antiviral activity was determined as a reduction in reverse transcriptase after 72 hr incubation. Temacrazine, an inhibitor of HIV transcription initiation, was used as the positive control for the assay.

[7] = system: HIV-1 isolates; test: PBMC assay, virus production; format: cell-based
Description: Acute infection of HIV-1 isolates (CXCR4-tropic HIV-1 Subtype B and CCR5-tropic HIV-1 Subtype) using fresh human PBMCs from multiple donors (PMA and IL-2 stimulated). Antiviral activity determined as a reduction in reverse transcriptase after 7-day incubation.
Antiviral activity was determined as a reduction in reverse transcriptase after 7-day incubation. AZT, a nucleoside analog reverse transcriptase inhibitor, was used as the positive control for the assay.

[8] = system: IL-8; test: IL-8 production in prostate cancer cells; format: cell-based
[9] = system: xenograft tumor; test: Xenograft tumor growth (pre-clinical); format: in vivo; conditions: single agent
[10] = Dog, 1.6 mg/kg IV, different lot
[11] = Dog, 7.7 mg/kg PO, filled capsules, different lot
[12] = Dog, 8.2 mg/kg PO, filled capsules
[13] = thirteen patients with solid tumors, oral BID

For `O=C(O)c1ccc2c(c1)nc(Nc1cccc(Cl)c1)c1ccncc12` [Compound K, 5-(3-chlorophenylamino)benzo[c][2,6]naphthyridine-8-carboxylic acid], the CLs ([1]; 5 mg/kg IV) was 2.5 L/h/kg, the “Terminal T1/2” value ([1]; 5 mg/kg IV) was 5.0 h and the “% F0-inf” value ([1]; 25 mg/kg PO) was 20.1%. The AUC(0-inf) ([1]; in vivo, 5 mg/kg IV, 25 mM sodium phosphate buffer) was 2000 ng·h/mL, the Cmax ([1]; in vivo, 5 mg/kg IV) was 6700 ng/mL and the Vd ([1]; in vivo, 5 mg/kg IV, read-out: Vdss) was 18.1 L/kg. For the same compound, the AUC(0-inf) ([1]; in vivo, 25 mg/kg PO, 25 mM phosphate buffer) was 2010 ng·h/mL, the Cmax ([1]; in vivo, 25 mg/kg PO) was 311 ng/mL and the half-life ([1]; in vivo, 25 mg/kg PO, read-out: Terminal T1/2 (converted)) was 426 min. The CLs [2, 10] was 0.9 L/h/kg, the CLs ([2]; Dog, 1.9 mg/kg IV) was 0.7 L/h/kg and the “Terminal T1/2” value ([2]; Dog, 1.9 mg/kg IV) was 8.3 h. For the same compound, the “% F0-inf” value [2, 11] was 41.8%, the “% F0-inf” value [2, 12] was 51.5% and the AUC(0-inf) ([2]; dog, iv, 1.6 mg/kg) was 1640 ng·h/mL. The AUC(0-inf) ([2]; dog, po, 7.7 mg/kg) was 3440 ng·h/mL, the Cmax [2, 10] was 4440 ng/mL and the half-life [2, 10] was 498 min. It also gave a Vd [2, 10] of 11.3 L/kg, a Cmax ([2]; Dog, 1.9 mg/kg IV) of 5780 ng/mL and an AUC(0-inf) ([2]; Dog, 1.9 mg/kg IV, 25 mM sodium phosphate buffer) of 2540 ng·h/mL. For the same compound, the Vd ([2]; Dog, 1.9 mg/kg IV) was 8.9 L/kg, the Cmax [2, 11] was 2730 ng/mL and the half-life [2, 11] was 594 min. For the same compound, the AUC(0-inf) [2, 12] was 5650 ng·h/mL, the Cmax [2, 12] was 2180 ng/mL and the half-life [2, 12] was 312 min. For the same compound, the bioavailability ([3]; plasma, po, rat and dog, administered orally) was 20 to 50%, the half-life ([3]; plasma, rat and dog, oral) was 300 to 720 min and the “clearance rate in vivo” value ([3]; rat and dog) was “relatively low clearance rate”. For the same compound, the half-life ([3]; rat, dog, plasma, other: injected (such as intramuscular or intravenous), when injected) was 300 to 720 min, the “effect on CFA-induced thermal hyperalgesia” value [4] was “Neither compound exhibited a statistically significant effect” and the “dose-limiting toxicities (DLTs)” value ([5]; Phase I patients) was “No dose-limiting toxicities (DLTs) have yet been observed”. For the same compound, the drug related toxicity ([5]; Phase I patients) was “no drug related toxicity”, the plasma exposures ([5]; after first dose on day 1 and day 21, Cohorts 1-3 (90, 160, 300 mg BID)) was “Dose related plasma exposures were observed” and the accumulation ([5]; day 1 vs day 21) was “No accumulation was observed”. For the same compound, the half-life ([5]; human, in vivo, at steady state, patients, oral BID, read-out: terminal half life (converted)) was about 1500 min, the “drug-related significant adverse events of grade 3 or higher” value [5, 13] was “no drug-related significant adverse events of grade 3 or higher reported” and the “tolerability of oral doses” value [5, 13] was “well tolerated”. The “inhibition of virus production” value [6] was “no significant inhibition of virus production”, the “inhibition of virus production” value [7] was “no significant inhibition of virus production” and the IL-8 production ([8]; ELISA (24 hr)) was “suppression of IL-8 production”. The IL-8 production ([8]; qRT-PCR (8 hr)) was “suppression of IL-8 production” and the xenograft tumor growth [9] was “single-agent potency in suppressing xenograft tumor growth”.
